Assay results reported in patent publication US20250066360A1, “PYRIDINE-CONTAINING POLYCYCLIC DERIVATIVE, AND PREPARATION METHOD THEREFOR AND USE THEREOF” (SHANGHAI HANSOH BIOMEDICAL CO., LTD., priority 2022, published 2025).

Tests used:
TNF-α in U937 cells = experiment: Inhibition of the expression level of TNF-α in LPS-stimulated U937 cells (ELISA); format: cell-based; details: Homo sapiens, U-937; PMA-differentiated U937, 10 ng/ml LPS 4 hours; read-out: U937 cell activity test TNF-α IC50
Procedure: U937 cells were treated with 20 ng/ml PMA for differentiation overnight, and after replacement with a fresh culture medium, the U937 cells were rested overnight. After differentiation, the U937 cells were digested and counted, and 50,000 cells per well were seeded in a 96-well plate until the cells adhered to the wall. A compound concentration gradient was prepared, the cells were pretreated with the compound for 1 hour (the highest final concentration of the compound was 1 μM, diluted in 3-fold concentration gradient), and 10 ng/ml LPS (Lipopolysaccharides from Escherichia coli O111:B4) was added for stimulation for 4 hours. Thereafter, the culture supernatant was collected by centrifugation and used for subsequent ELISA to detect the concentration of TNF-α in the supernatant. The concentration of TNF-α was detected according to the standard steps provided by the ELISA kit manufacturer.
A standard curve was plotted by a linear regression method from a TNF-α standard, and the concentration of TNF-α in a sample was derived by conversion according to the standard curve.
(§1) Calculation of inhibition rate: Inhibition rate %=[(mean value of TNF-α concentration in positive control well−mean value of TNF-α concentration in sample well)/(mean value of TNF-α concentration in positive control well−mean value of TNF-α concentration in negative control well)]×100%, wherein the positive control well was a well without a compound (DMSO-treated well), and the negative control well was a culture medium well.
Dose response curve fitting: Log(inhibitor) vs. response−Variable slope (four parameters) in GraphPad Prism 6 was used for fitting equation analysis of the compound concentration and the corresponding inhibition rate, and the curve was fitted to obtain the IC50 value of the compound. The fitting calculation equation was Y=Bottom+(Top−Bottom)/(1+10^((Log IC50−X)*HillSlope)).

p38α/MK2 = target: T1, p38α/MK2 (Homo sapiens, UniProt P49137+Q16539); experiment: Inhibition of p38α/MK2 enzyme activity (TR-FRET, ULight-CREBtide); format: biochemical; details: for IC50: 0.06 nM p38a, 1.2 nM MK2, 25 μM ATP, read-out: p38/MK2 IC50; for Selectivity ratio (p38 IC50 / p38/MK2 IC50): selectivity ratio p38 IC50 over p38/MK2 IC50
T1 construct: purchased R & D systems (p38 alpha); Thermo (MK2) 5477-KS-010; PV3316
T1 sequence (Q16539 whole entry): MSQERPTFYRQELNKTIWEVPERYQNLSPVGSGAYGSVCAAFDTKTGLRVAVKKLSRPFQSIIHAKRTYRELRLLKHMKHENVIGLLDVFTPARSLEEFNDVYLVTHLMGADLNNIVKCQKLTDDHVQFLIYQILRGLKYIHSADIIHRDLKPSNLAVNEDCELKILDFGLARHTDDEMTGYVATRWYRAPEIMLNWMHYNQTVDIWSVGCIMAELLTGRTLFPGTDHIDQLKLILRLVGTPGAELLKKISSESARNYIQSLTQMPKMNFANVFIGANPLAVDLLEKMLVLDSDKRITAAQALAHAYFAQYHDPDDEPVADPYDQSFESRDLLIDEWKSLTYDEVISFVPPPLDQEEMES
T1 sequence (P49137 whole entry): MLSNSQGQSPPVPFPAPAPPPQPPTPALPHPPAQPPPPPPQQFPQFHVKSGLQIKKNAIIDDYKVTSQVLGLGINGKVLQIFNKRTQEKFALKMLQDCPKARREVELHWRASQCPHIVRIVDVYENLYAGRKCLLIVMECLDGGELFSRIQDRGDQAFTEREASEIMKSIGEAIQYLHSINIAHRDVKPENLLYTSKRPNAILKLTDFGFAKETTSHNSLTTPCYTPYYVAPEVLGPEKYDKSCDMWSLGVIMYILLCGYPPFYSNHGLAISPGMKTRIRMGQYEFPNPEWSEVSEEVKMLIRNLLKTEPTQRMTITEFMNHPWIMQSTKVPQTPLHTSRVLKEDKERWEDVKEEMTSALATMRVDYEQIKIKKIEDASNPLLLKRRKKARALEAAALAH
Procedure: (§2) 50 nM ULight-CREBtide and 25 μM ATP (ATP Solution) were added, and the mixture was reacted at room temperature for 1.5 hours. An equal volume of a detection and termination mixed solution (1×LANCE detection buffer containing 20 mM EDTA and 2 nM Europium-anti-phospho-CREB) was added, the mixture was mixed until uniform and centrifuged, a plate sealing film was attached, and a reaction was performed at room temperature for 1 hour. TR-FRET program of the EnVision instrument was used to read the plate, and the fluorescence value of each well was detected at 665 nm/615 nm.
(§3) Calculation was performed on the raw data (665 nm/615 nm reading ratio) according to the following formula to obtain the inhibition rate. Inhibition rate %=[(mean value in positive control well−value in sample well)/(mean value in positive control well−mean value in negative control well)]×100, wherein the positive control well was a reaction well without a compound […], and the negative control well was a reaction wells without an enzyme.
(§4) Log(inhibitor) vs. response−Variable slope (four parameters) in GraphPad Prism 6 was used for fitting equation analysis of the compound concentration and the corresponding inhibition rate, and the curve was fitted to obtain the IC50 value of the compound.
(§5) The fitting calculation equation was Y=Bottom+(Top−Bottom)/(1+10^((Log IC50−X)*HillSlope)).

[1] = target: T2, p38a (Active p38 alpha Protein) (Homo sapiens, UniProt Q16539); experiment: Inhibition of p38 enzyme activity (TR-FRET, ULight-MBP); format: biochemical; details: 3 nM p38a, 50 μM ATP
T2 construct: purchased R & D systems 5477-KS-010
T2 sequence (Q16539 whole entry): as the sequence (Q16539 whole entry) above
Procedure: as §2, with “Experimental method for determining the p38 enzyme activity: 3 nM p38a (Active p38 alpha Protein) and compounds diluted in a certain concentration gradient were incubated in 1× enzyme reaction buffer (50 mM HEPES pH 7.5, 1 mM EGTA, 10 mM MgCl2, 2 mM DTT, 0.01% Tween-20) for 1 hour. 50” for “50”, “ULight-MBP” for “ULight-CREBtide”, “50” for “25”, “(ATP 10 mM” for “(ATP”, “Europium-anti-P-MBP)” for “Europium-anti-phospho-CREB)”
as §3, §4, §5

p-Hsp27 in U937 cells = experiment: Inhibition of p-Hsp27 in LPS-stimulated U937 cells (ELISA); format: cell-based; details: Homo sapiens, U-937; PMA-differentiated U937, 10 ng/ml LPS 0.5 hours; read-out: U937 cell activity test p-HSP27 IC50
Procedure: U937 cells were treated with 20 ng/ml PMA for differentiation overnight, and after replacement with a fresh culture medium, the U937 cells were rested overnight. After differentiation, the U937 cell were digested and counted, and 25,000 cells per well were seeded in a 96-well plate until the cells adhered to the wall. A compound concentration gradient was prepared, the cells were pretreated with the compound for 1 hour (the highest final concentration of the compound was 1 μM, diluted in 3-fold concentration gradient), and 10 ng/ml LPS (Lipopolysaccharides from Escherichia coli O111:B4) was added for stimulation for 0.5 hours. After the cells were washed with PBS, the cells were lysed with a lysis solution. p-Hsp27 in the cell lysate was detected by using Phospho-HSP27 (S78/S82) DuoSet IC ELISA kit. For specific steps, reference could be made to the standard steps provided by the kit manufacturer.
as §1, with “of p-Hsp27” for “of”, “of p-Hsp27” for “of TNF-α concentration”, “a well without LPS stimulation.” for “a culture medium well.”
Dose response curve fitting: Log(inhibitor) vs. response−Variable slope (four parameters) in GraphPad Prism 6 was used for fitting equation analysis of the compound concentration and the corresponding inhibition rate, and the curve was fitted to obtain the IC50 value of the compound.
as §5

Structure (SMILES)	IC50 (TNF-α in U937 cells) [nM]	IC50 (p38α/MK2) [nM]	Selectivity ratio (p38 IC50 / p38/MK2 IC50) (p38α/MK2)	IC50 [1] [nM]	IC50 (p-Hsp27 in U937 cells) [nM]
[2H]C([2H])(Oc1cc(C)n(-c2cc(-n3cccc(C(C)(C)O)c3=O)ncc2C)c(=O)c1Cl)c1ccc(F)cc1F [Example 14-1, (S)-3″-chloro-4″-((2,4-difluorophenyl)methoxy-d2)-3-(2-hydroxypropan-2-yl)-5′,6″-dimethyl-2H,2″H-[1,2′:4′,1″-terpyridine]-2,2″-dione]	0.12	0.05	102	5.1	0.13
[2H]C([2H])(Oc1cc2n(c(=O)c1Cl)-c1cc(-n3cccc(C(C)(C)O)c3=O)ncc1/C=C\CC2)c1ncc(F)cc1F [Example 19-1, (S,Z)-11-chloro-10-((3,5-difluoropyridin-2-yl)methoxy-d2)-2-(3-(2-hydroxypropan-2-yl)-2-carbonylpyridin-1(2H)-yl)-7,8-dihydro-12H-dipyrido[1,2-a:3′,4′-g]azocin-12-one]		0.12			
[2H]C([2H])(Oc1cc2n(c(=O)c1Cl)-c1cc(-n3cc(F)c(C(C)(C)NC(C)=O)n3)ncc1CCCC2)c1ncc(F)cc1F [Example 3-1, (S)—N-(2-(1-(11-chloro-10-((3,5-difluoropyridin-2-yl)methoxy-d2)-12-carbonyl-6,7,8,12-tetrahydro-5H-dipyrido[1,2-a:3′,4′-g]azocin-2-yl)-4-fluoro-1H-pyrazol-3-yl)propan-2-yl)acetamide]	0.18	0.18			0.15
[2H]C([2H])(Oc1cc2n(c(=O)c1Cl)-c1cc(-c3ccnc(C(C)(C)O)n3)ncc1/C=C\CC2)c1ncc(F)cc1F [Example 16-1, (S,Z)-11-chloro-10-((3,5-difluoropyridin-2-yl)methoxy-d2)-2-(2-(2-hydroxypropan-2-yl)pyrimidin-4-yl)-7,8-dihydro-12H-dipyrido[1,2-a:3′,4′-g]azocin-12-one]	0.85	0.49			0.28
[2H]C([2H])(Oc1cc(C)n(-c2cc(-n3cccc(C(C)(C)O)c3=O)ncc2Cl)c(=O)c1Cl)c1ncc(F)cc1F [Example 10-1, (S)-3″,5′-dichloro-4″-((3,5-difluoropyridin-2-yl)methoxy-d2)-3-(2-hydroxypropan-2-yl)-6″-methyl-2H,2″H-[1,2′:4′,1″-terpyridine]-2,2″-dione]	0.1	0.13			0.13
[2H]C([2H])(Oc1cc2n(c(=O)c1Cl)-c1c(cnc(-n3ccc(C(C)(C)O)n3)c1F)CCCC2)c1ncc(F)cc1F [Example 8-1, (R)-11-chloro-10-((3,5-difluoropyridin-2-yl)methoxy-d2)-1-fluoro-2-(3-(2-hydroxypropan-2-yl)-1H-pyrazol-1-yl)-5,6,7,8-tetrahydro-12H-dipyrido[1,2-a:3′,4′-g]azocin-12-one]	0.19	0.25			0.22
[2H]C([2H])(Oc1cc(C)n(-c2cc(-n3cccc(C(C)(C)O)c3=O)ncc2C)c(=O)c1Cl)c1ncc(F)cc1F [Example 11-1, (S)-3″-chloro-4″-((3,5-difluoropyridin-2-yl)methoxy-d2)-3-(2-hydroxypropan-2-yl)-5′,6″-dimethyl-2H,2″H-[1,2′:4′,1″-terpyridine]-2,2″-dione]	0.21	0.28	346	96.9	0.1
[2H]C([2H])(Oc1cc(C)n(-c2cc(-n3cccc(C(C)(C)NC(C)=O)c3=O)ncc2C)c(=O)c1Cl)c1ccc(F)cc1F [Example 13-1, (S)—N-(2-(3″-chloro-4″-((2,4-difluorophenyl)methoxy-d2)-5′,6″-dimethyl-2,2″-dicarbonyl-2H,2″H-[1,2′:4′,1″-terpyridin]-3-yl)propan-2-yl)acetamide]	0.51	0.12	138	16.5	0.56
[2H]C([2H])(Oc1cc2n(c(=O)c1Cl)-c1cc(-n3ccc(C(C)(C)O)n3)ncc1/C=C\CC2)c1ncc(F)cc1F [Example 17-1, (S,Z)-11-chloro-10-((3,5-difluoropyridin-2-yl)methoxy-d2)-2-(3-(2-hydroxypropan-2-yl)-1H-pyrazol-1-yl)-7,8-dihydro-12H-dipyrido[1,2-a:3′,4′-g]azocin-12-one]		0.27			
[2H]C([2H])(Oc1cc2n(c(=O)c1Cl)-c1cc(-c3ccnc(C(C)(C)NC(C)=O)n3)ncc1CCCC2)c1ncc(F)cc1F [Example 4-1, (S)—N-(2-(4-(11-chloro-10-((3,5-difluoropyridin-2-yl)methoxy-d2)-12-carbonyl-6,7,8,12-tetrahydro-5H-dipyrido[1,2-a:3′,4′-g]azocin-2-yl)pyrimidin-2-yl)propan-2-yl)acetamide]	1.2				0.35
[2H]C([2H])(Oc1cc(C)n(-c2cc(-n3cccc(C(C)(C)NC(C)=O)c3=O)ncc2C)c(=O)c1Cl)c1ncc(F)cc1F [Example 5-1, (S)—N-(2-(3″-chloro-4″-((3,5-difluoropyridin-2-yl)methoxy-d2)-5′,6″-dimethyl-2,2″-dicarbonyl-2H,2″H-[1,2′:4′,1″-terpyridin]-3-yl)propan-2-yl)acetamide]		0.79	666	526	
[2H]C([2H])(Oc1cc2n(c(=O)c1Cl)-c1cc(-n3ccc(C(C)(C)O)n3)ncc1CCCC2)c1ncc(F)cc1F [Example 2-1, (S)-11-chloro-10-((3,5-difluoropyridin-2-yl)methoxy-d2)-2-(3-(2-hydroxypropan-2-yl)-1H-pyrazol-1-yl)-5,6,7,8-tetrahydro-12H-dipyrido[1,2-a:3′,4′-g]azol-12-one]	0.33	0.42			0.28
[2H]C([2H])(Oc1cc2n(c(=O)c1Cl)-c1cc(-n3cc(F)c(C(C)(C)NC(C)=O)n3)ncc1/C=C\CC2)c1ncc(F)cc1F [Example 18-1, (S,Z)—N-(2-(1-(11-chloro-10-((3,5-difluoropyridin-2-yl)methoxy-d2)-12-carbonyl-8,12-dihydro-7H-dipyrido[1,2-a:3′,4′-g]azocin-2-yl)-4-fluoro-1H-pyrazol-3-yl)propan-2-yl)acetamide]		0.12			
